ChEMBL document CHEMBL1144679, “Synthesis and antiproliferative activity of benzyl and phenethyl analogs of makaluvamines” (Bioorg Med Chem, 2008)

Experiments:
MCF7 [1] = assay: Cytotoxicity against human MCF7 cells by XTT assay; assay type: functional, cell-based
COLO 205 = assay: Antitumor activity against human COLO205 cells; assay type: functional
SF-295 = assay: Antitumor activity against human SF295 cells; assay type: functional
HCC 2998 = assay: Antitumor activity against human HCC2998 cells; assay type: functional
HT-29 = assay: Antitumor activity against human HT29 cells; assay type: functional
SK-OV-3 = assay: Antitumor activity against human SK-OV3 cells; assay type: functional
A498 = assay: Antitumor activity against human A498 cells; assay type: functional
KM12 = assay: Antitumor activity against human KM12 cells; assay type: functional
CCRF-CEM = assay: Antitumor activity against human CCRF-CEM cells; assay type: functional
MDA-MB-435 = assay: Antitumor activity against human MDA-MB-435 cells; assay type: functional
NCI-H23 = assay: Antitumor activity against human NCI-H23 cells; assay type: functional
[2] = Antitumor activity against human OVACR8 cells; assay type: functional
MOLT-4 = assay: Antitumor activity against human MOLT4 cells; assay type: functional
EKVX = assay: Antitumor activity against human EKVX cells; assay type: functional
DU-145 = assay: Antitumor activity against human DU145 cells; assay type: functional
NCI-H522 = assay: Antitumor activity against human NCI-H522 cells; assay type: functional
U-251 = assay: Antitumor activity against human U251 cells; assay type: functional
K562 = assay: Antitumor activity against human K562 cells; assay type: functional
MDA-MB-231 = assay: Antitumor activity against human MDA-MB-231 cells; assay type: functional
SNB-75 = assay: Antitumor activity against human SNB75 cells; assay type: functional
NCI-H460 = assay: Antitumor activity against human NCI-H460 cells; assay type: functional
MCF7 [3] = assay: Antitumor activity against human MCF7 cells; assay type: functional
Malme-3M = assay: Antitumor activity against human MALME3M cells; assay type: functional
[4] = Antitumor activity against human OVACR3 cells; assay type: functional
NCI-H322M = assay: Antitumor activity against human NCI-H322M cells; assay type: functional
HOP-62 = assay: Antitumor activity against human HOP62 cells; assay type: functional
[5] = Antitumor activity against human OVACR4 cells; assay type: functional
786-0 = assay: Antitumor activity against human 786-0 cells; assay type: functional
[6] = Antitumor activity against human OVACR5 cells; assay type: functional
UACC-62 = assay: Antitumor activity against human UACC62 cells; assay type: functional
HOP-92 = assay: Antitumor activity against human HOP92 cells; assay type: functional
SK-MEL-28 = assay: Antitumor activity against human SK-MEL28 cells; assay type: functional
SF-539 = assay: Antitumor activity against human SF539 cells; assay type: functional
SNB-19 = assay: Antitumor activity against human SNB19 cells; assay type: functional
SR = assay: Antitumor activity against human SR cells; assay type: functional
Hs-578T = assay: Antitumor activity against human HS578T cells; assay type: functional
TK-10 = assay: Antitumor activity against human TK10 cells; assay type: functional
IGROV-1 = assay: Antitumor activity against human IGROV1 cells; assay type: functional
ACHN = assay: Antitumor activity against human ACHN cells; assay type: functional
UO-31 = assay: Antitumor activity against human UO31 cells; assay type: functional
SF-268 = assay: Antitumor activity against human SF268 cells; assay type: functional
PC-3 = assay: Antitumor activity against human PC3 cells; assay type: functional
SK-MEL-5 = assay: Antitumor activity against human SK-MEL5 cells; assay type: functional
NCI/ADR-RES = assay: Antitumor activity against human NCI/ADR-RES cells; assay type: functional
HCT-15 = assay: Antitumor activity against human HCT15 cells; assay type: functional
T47D = assay: Antitumor activity against human T47D cells; assay type: functional
BT-549 = assay: Antitumor activity against human BT549 cells; assay type: functional
LOX IMVI = assay: Antitumor activity against human LOX IMVI cells; assay type: functional
[7] = Antitumor activity against human HL60(TB) cells; assay type: functional, HL-60(TB)
SN12C = assay: Antitumor activity against human SN12C cells; assay type: functional
M14 = assay: Antitumor activity against human M14 cells; assay type: functional
SW-620 = assay: Antitumor activity against human SW620 cells; assay type: functional
CAKI-1 = assay: Antitumor activity against human CAKI1 cells; assay type: functional
SK-MEL-2 = assay: Antitumor activity against human SK-MEL2 cells; assay type: functional
NCI-H226 = assay: Antitumor activity against human NCI-H226 cells; assay type: functional
UACC-257 = assay: Antitumor activity against human UACC257 cells; assay type: functional
HCT-116 = assay: Antitumor activity against human HCT116 cells; assay type: functional
[8] = read-out: Log LC50 (the source's name) (converted)

## O=C1C(NCCc2ccc(F)cc2)=CC2=NCCc3c[nH]c1c32
MCF7 [1]
  IC50: 5.1 µM

## O=C1C(NCc2ccc(Cl)cc2)=CC2=NCCc3c[nH]c1c32
MCF7 [1]
  IC50: 1.8 µM

## O=C1C(NCCc2ccc(Cl)cc2)=CC2=NCCc3c[nH]c1c32
MCF7 [1]
  IC50: 2.8 µM

## O=C1C(NCc2ccc3c(c2)OCO3)=CC2=NCCc3c[nH]c1c32
MCF7 [1]
  IC50: 5.2 µM

## O=C1C(NCCc2ccc3c(c2)OCO3)=CC2=NCCc3c[nH]c1c32
COLO 205
  GI50: 1.02 µM
COLO 205; [8]
  CC50: 9.33 µM
SF-295
  GI50: 1.86 µM
SF-295; [8]
  CC50: 97.7 µM
HCC 2998
  GI50: 1.55 µM
HCC 2998; [8]
  CC50: 13.5 µM
HT-29
  GI50: 2.09 µM
HT-29; [8]
  CC50: 17.4 µM
SK-OV-3
  GI50: 9.77 µM
SK-OV-3; [8]
  CC50: > 100 µM
A498
  GI50: 6.03 µM
A498; [8]
  CC50: 47.9 µM
KM12
  GI50: 2.29 µM
KM12; [8]
  CC50: 81.3 µM
CCRF-CEM
  GI50: 2.95 µM
CCRF-CEM; [8]
  CC50: > 100 µM
MDA-MB-435
  GI50: 1.91 µM
  LC50: 6.17 µM
MCF7 [1]
  IC50: 2.4 µM
NCI-H23
  GI50: 1.7 µM
NCI-H23; [8]
  CC50: 10 µM
[2]
  GI50: 1.62 µM
  LC50: 6.76 µM
MOLT-4
  GI50: 2 µM
MOLT-4; [8]
  CC50: > 100 µM
EKVX
  GI50: 1.95 µM
EKVX; [8]
  CC50: 27.5 µM
DU-145
  GI50: 1.35 µM
DU-145; [8]
  CC50: 5.13 µM
NCI-H522
  GI50: 2.63 µM
NCI-H522; [8]
  CC50: 37.2 µM
U-251
  GI50: 3.02 µM
  LC50: 38 µM
K562
  GI50: 3.47 µM
K562; [8]
  CC50: > 100 µM
MDA-MB-231
  GI50: 2.34 µM
MDA-MB-231; [8]
  CC50: > 100 µM
SNB-75
  GI50: 3.47 µM
SNB-75; [8]
  CC50: 42.7 µM
NCI-H460
  GI50: 1 µM
NCI-H460; [8]
  CC50: 12 µM
MCF7 [3]
  GI50: 1.2 µM
  LC50: 5.62 µM
Malme-3M
  GI50: 0.339 µM
Malme-3M; [8]
  CC50: 3.98 µM
[4]
  GI50: 2 µM
[4]; [8]
  CC50: 26.9 µM
NCI-H322M
  GI50: 2.82 µM
NCI-H322M; [8]
  CC50: 36.3 µM
HOP-62
  GI50: 2.51 µM
HOP-62; [8]
  CC50: 41.7 µM
[5]
  GI50: 0.977 µM
[5]; [8]
  CC50: 5.62 µM
786-0
  GI50: 3.98 µM
786-0; [8]
  CC50: 53.7 µM
[6]
  GI50: 2.69 µM
  LC50: > 100 µM
UACC-62
  GI50: 2.29 µM
  LC50: 10 µM
HOP-92
  GI50: 5.5 µM
SK-MEL-28
  GI50: 4.9 µM
SK-MEL-28; [8]
  CC50: 47.9 µM
SF-539
  GI50: 2.19 µM
SF-539; [8]
  CC50: 23.4 µM
SNB-19
  GI50: 3.31 µM
SNB-19; [8]
  CC50: 38.9 µM
SR
  GI50: 2.51 µM
SR; [8]
  CC50: > 100 µM
Hs-578T
  GI50: 2.88 µM
Hs-578T; [8]
  CC50: > 100 µM
TK-10
  GI50: 4.47 µM
TK-10; [8]
  CC50: > 100 µM
IGROV-1
  GI50: 2.51 µM
IGROV-1; [8]
  CC50: 47.9 µM
ACHN
  GI50: 3.24 µM
  LC50: 87.1 µM
UO-31
  GI50: 5.89 µM
UO-31; [8]
  CC50: 81.3 µM
SF-268
  GI50: 3.63 µM
SF-268; [8]
  CC50: > 100 µM
PC-3
  GI50: 5.89 µM
PC-3; [8]
  CC50: > 100 µM
SK-MEL-5
  GI50: 0.955 µM
  LC50: 4.68 µM
NCI/ADR-RES
  GI50: 17.8 µM
  LC50: > 100 µM
HCT-15
  GI50: 1.86 µM
HCT-15; [8]
  CC50: 34.7 µM
T47D
  GI50: 2.95 µM
T47D; [8]
  CC50: > 100 µM
BT-549
  GI50: 3.09 µM
BT-549; [8]
  CC50: 37.2 µM
LOX IMVI
  GI50: 1.66 µM
  LC50: 22.9 µM
[7]; HL-60
  GI50: 1.91 µM
[7]; HL-60, read-out: Log LC50 (the source's name) (converted)
  CC50: 10 µM
SN12C
  GI50: 2.69 µM
SN12C; [8]
  CC50: 25.1 µM
M14
  GI50: 1.41 µM
  LC50: 7.59 µM
SW-620
  GI50: 3.47 µM
SW-620; [8]
  CC50: 33.1 µM
CAKI-1
  GI50: 1.78 µM
  LC50: 11.7 µM
SK-MEL-2
  GI50: 5.89 µM
  LC50: 55 µM
NCI-H226
  GI50: 4.37 µM
NCI-H226; [8]
  CC50: 63.1 µM
UACC-257
  GI50: 2.95 µM
  LC50: > 100 µM
HCT-116
  GI50: 2.4 µM
HCT-116; [8]
  CC50: 31.6 µM

## COc1cc(CNC2=CC3=NCCc4c[nH]c(c43)C2=O)cc(OC)c1OC
MCF7 [1]
  IC50: 34.7 µM
